Test results from article PMC5905120, “An innovative immunotherapeutic strategy for ovarian cancer: CLEC10A and glycomimetic peptides” (Journal for Immunotherapy of Cancer, 2018).
Entries after “also recorded” stand apart in the source; their conditions may differ. Bridges are numbered along the chain shown (N, C = ends). Roman numbers before positions name the chains, in order. Where no end group is shown, it is not given here.

Legend:
[1] = system: ID8 ovarian cancer in C57BL/6 mice; test: Murine ovarian cancer model (ID8), sv6D and paclitaxel study; type: in vivo, mouse (C57BL/6)
Excerpt: Mantel-Cox log-rank test, p (sv6D vs. PBS) = < 0.0001. Paclitaxel, brown; sv6D from day 45, blue; paclitaxel plus sv6D from day 100, purple; cremophor, yellow; PBS, black

[2] = Antigenicity assay in mouse sera; type: in vivo; details: 1 nmole/g s.c., alternate days for 3 months; sera of 8 treated mice, Fig. 8
Experimental: The sequence of one arm of svL4 or sv6D was conjugated to keyhole limpet hemocyanin (KLH) and injected into rabbits at two week intervals (total of 3 injections) (New England Peptide, Inc., Gardner, MA). Two weeks after the final injection, sera were prepared. Mice were injected with a peptide every other day over a period of 3 months (total ~ 45 injections), blood was then collected by cardiac puncture and sera were prepared. Rabbit serum was diluted 1:10, whereas mouse serum was diluted 1:1 or 1:5 with PBS containing 0.05% Tween-20 (PBST). Sera were incubated in microtiter wells coated with protein A/G (Pierce) for 90 min. The wells were washed three times with PBST, and then incubated with 50 μL of 1 μM biotinylated svL4 or sv6D for 1 h. The wells were washed four times with PBST, incubated 1 h with 1 μg/mL streptavidin-peroxidase conjugate, and washed four times with PBST. Peroxidase activity was assayed as above under Binding Assays.
Fig. 8 Test for antigenicity of svL4 and sv6D. Anti-sera were generated in rabbits against KLH-conjugates of the sequences of svL4 or sv6D and diluted 1:10. Mouse sera were collected after alternate-day injections of svL4 over 3 months, diluted 1:1 with PBS and added to protein-A/G-coated wells. Biotinylated svL4 or sv6D was added to wells and bound peptide was detected with a streptavidin-peroxidase conjugate. […]

human ASGPR-1 = biological target: T1, human ASGPR-1 (Homo sapiens, UniProt P07306); test: Solid-phase binding to recombinant human ASGPR-1; details: for binding to ASGPR-1: Fig. 2a, representative of 3 independent experiments
T1 construct: purchased R&D Systems
T1 sequence (P07306 62-291 limits assumed): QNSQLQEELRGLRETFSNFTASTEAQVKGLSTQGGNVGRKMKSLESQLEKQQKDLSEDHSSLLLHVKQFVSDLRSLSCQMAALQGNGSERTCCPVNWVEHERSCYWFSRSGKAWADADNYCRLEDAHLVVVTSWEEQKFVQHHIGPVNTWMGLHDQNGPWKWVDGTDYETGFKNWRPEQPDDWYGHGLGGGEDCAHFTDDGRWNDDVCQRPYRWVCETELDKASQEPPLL
Experimental: (§1) Solid-phase binding assays were performed with streptavidin-, protein A/G-, or Nickel-coated microtiter plates (Pierce). His-tagged or Fc-fusion recombinant receptors (R&D Systems, Minneapolis, MN) were reconstituted in PBS. Sufficient receptors were added to wells to saturate the coating. His-tagged receptors were added to each well at a 5-fold excess over the stated capacity of the Ni coating to minimize non-specific binding of the peptide. Wells were washed three times with binding buffer (25 mM Tris HCl, pH 7.4, 150 mM NaCl, 0.05% Tween-20) to remove unbound receptor and 50 μL of 2 μM biotinylated peptide in binding buffer were added and allowed to incubate for 1 h. The wells were washed four times with binding buffer and then incubated with 50 μL of 1 μg/mL streptavidin conjugated with peroxidase (Sigma-Aldrich) for 1 h. The wells were washed five times with binding buffer and 50 μL of peroxidase substrate (1-Step™ Ultra TMB, Pierce) were added. After several minutes to allow color development, the reaction was stopped with 50 μL 1 M H3PO4 and absorbance was measured at 450 nm. Bound streptavidin was quantitated by the specific activity of peroxidase (absorbance/ng protein conjugate/min) under the conditions of the assay.
(§2) Solid-phase binding assays were performed with recombinant human receptors. Three variations of the binding assay were used in this study, all of which allowed the arms of the tetravalent peptide to have full flexibility. (i) Biotinylated peptide was bound in microtiter wells coated with streptavidin and incubated with recombinant human receptors. After extensive washing, the bound receptor was measured by peroxidase conjugated to a receptor-specific antibody. (ii) The extracellular domains of receptors, which were fused with the Fc domain of immunoglobulin IgG, were bound in wells coated with protein A/G. Biotinylated peptide was incubated with the receptors and, after extensive washing, bound peptide was measured with streptavidin conjugated with peroxidase. Or (iii), recombinant receptors with a poly-His tag were bound to Nickel-coated wells and incubated with biotinylated peptide. svL4 and sv6D contain His residues (see Table 1) and can bind to the Ni coating, which was minimized by adding sufficient poly-His-tagged receptor to saturate the Ni coating.

human CLEC10A = biological target: T2, human CLEC10A (Homo sapiens, UniProt Q8IUN9); test: Solid-phase binding to recombinant human CLEC10A; details: for binding to CLEC10A: Fig. 2a, representative of 3 independent experiments
T2 construct: purchased R&D Systems
T2 sequence (Q8IUN9 61-316 limits assumed): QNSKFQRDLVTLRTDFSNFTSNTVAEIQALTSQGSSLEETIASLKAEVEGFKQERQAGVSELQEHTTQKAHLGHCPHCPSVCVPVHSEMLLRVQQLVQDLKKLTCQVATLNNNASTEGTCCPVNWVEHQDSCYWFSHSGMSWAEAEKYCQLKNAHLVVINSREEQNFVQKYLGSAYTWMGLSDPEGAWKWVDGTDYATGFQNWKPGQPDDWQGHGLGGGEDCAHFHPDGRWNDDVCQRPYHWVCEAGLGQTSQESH
Experimental: as §1, §2

[3] = system: peritoneal cells of C57BL/6 mice; test: Peritoneal immune cell populations by flow cytometry, C57BL/6 mice; type: in vivo, mouse (C57BL/6); details: 1 nmole/g s.c., 5-day period, Fig. 5 (non-binding control)
Experimental: Healthy C57BL/6 male mice, 10 weeks old, were injected subcutaneously with peptides on alternate days. Peritoneal cells were isolated from mice 24 h after dosing by injecting ice cold PBS (containing 3% FBS) into the peritoneal cavity, gently massaging the abdomen, and then collecting the fluid, which was transferred into K2EDTA-treated tubes for evaluation of specific biomarkers. Cells from three mice in each group were pooled, counted and divided among FACS tubes (1 × 10^6 cells per tube). Cells were washed once in PBS containing 3% FBS, then stained with 0.25 to 1 μg of fluorescently conjugated antibody per 10^6 cells in 100 μL of buffer as recommended by the manufacturer (Table 2).
Cells were incubated with the antibodies for 30 min at 4 °C in the dark. Following staining, the cells were washed two times with PBS/3% FBS and immediately analyzed with a MACSQuant flow cytometer (Miltenyi Biotech, Inc., San Diego, CA). Compensation was performed using single stain tubes for each color present in the analysis as well as an unstained control sample. Collection of flow cytometric data and analysis with FlowJo software, version 10.0.6 (FlowJo, LLC, Ashland, OR) were performed by Biomodels LLC (Watertown, MA).
To examine whether increases occurred in mature immune cells, peritoneal cells from Balb/c and C57BL/6 mice were analyzed by flow cytometry after cells were stained with the markers listed in Table 2. […] To explore this observation more extensively, svL4 or sv6D was injected into C57BL/6 mice on day 0, 2 or 4. Peritoneal cells were examined by flow cytometry 24 h after each injection. Shown in Fig. 5 are results expressed as cell counts for F4/80 CD11b CD86 (mature, active macrophages); CD11c (DCs); CD11c CD 86 (activated DCs); CD4 CD69 (activated T cells); CD8 CD69 (activated cytotoxic T cells); NK1.1 CD3^+ CD69 (activated NKT cells); NK1.1 CD3^− CD69 (activated NK cells); CD19 (B cells); and CD19 CD73 CD80 CD273 (memory B cells). The numbers of these mature, activated cells continued to increase with each injection.
Fig. 5 Expansion of peritoneal cells in C57BL/6 mice. Mice were injected subcutaneously at a dose of 1 nmole/g body weight of svL4, sv6D or svC1. Cells in each population recovered in a peritoneal lavage are expressed as cell counts (in thousands). Cells from three mice in each treatment group were pooled for analysis. The number of cells in each population was normalized to the average recovery of total cells from all groups. For each cell type, the left-hand, middle and right-hand set of bars represent samples from mice treated with svL4, sv6D or svC1, respectively. Mice were injected on days 0, 2 and 4, and cells were collected 24 h after each injection. Day 1, open bar; day 3, grey bar; day 5, black bar. Populations that express activation markers are indicated by an asterisk

PD-1 = details: patients with ovarian cancer; ref [106], [107]; cited from earlier work
Excerpt: Paclitaxel is currently used as a chemotherapeutic drug that acts by stabilizing microtubules and arresting cells in the cell cycle at the G2/M boundary. Paclitaxel is often combined with a platinum-based drug. Patients treated with these drugs experience a significant level of toxicity. […] However, because sv6D induces proliferation of immune cells, initiation of treatment should perhaps occur after the cell cycle inhibitory action of paclitaxel has dissipated. Pat ...

ASGPR-1 [4] = details: cited from earlier work
Experimental: The type II C-type lectin asialoglycoprotein receptor-1 (ASGPR-1, Ashwell-Morell receptor, CLEC4H1) on hepatic cells also binds GalNAc-containing structures. ASGPR-1 has a 60-fold greater preference for GalNAc over Gal. Each healthy rat hepatocyte expresses 4 to 5 × 10^5 molecules of ASGPR-1 as binding sites for asialo-orosomucoid or 1.8 × 10^6 molecules as determined by an ASGPR-1-targeted antibody, which provides a surface concentration for the receptor of 0.8 to 1 μM. […] Corresponding values for binding of svL4 to CLEC10A and ASGPR-1 of 0.24 ± 0.04 μM and 0.21 ± 0.03 μM, respectively, were obtained. […] Asialofetuin, a multi-glycosylated pro ...

ASGPR-1 [5] = test: Inhibition of svL4 binding to ASGPR-1; parameters: species or system human; details: 75 μM asialofetuin, 0.2 μM svL4
Experimental: as §1, with “Wells were washed three times with binding buffer (25 mM Tris HCl, pH 7.4, 150 mM NaCl, 0.05% Tween-20) to remove unbound receptor and 50 μL of 2 μM biotinylated peptide in binding buffer were added and allowed to incubate for 1 h.” left out
Corresponding values for binding of svL4 to CLEC10A and ASGPR-1 of 0.24 ± 0.04 μM and 0.21 ± 0.03 μM, respectively, were obtained.

[6] = biological target: recombinant human CLEC10A (C-type lectin receptor family member 10A) (human) (UniProt Q8IUN9); test: ELISA; solid-phase binding assay as a function of the concentration of peptide; KD from double-reciprocal plots of the binding curves; extensive wash steps
[7] = biological target: recombinant human asialoglycoprotein receptor-1 (ASGPR-1) (human) (UniProt P07306); test: as above
[8] = double-reciprocal plot of binding vs. peptide concentration, biotinylated peptide, binding buffer 25 mM Tris HCl pH 7.4, 150 mM NaCl, 0.05% Tween-20, 1 h, streptavidin-peroxidase 450 nm, ± S.D., 4 separate assays

CC(=O)O[C@H]1C(=O)[C@@]2(C)[C@H]([C@H](OC(=O)c3ccccc3)[C@]3(O)C[C@H](OC(=O)[C@H](O)[C@@H](NC(=O)c4ccccc4)c4ccccc4)C(C)=C1C3(C)C)[C@]1(OC(C)=O)CO[C@@H]1C[C@@H]2O [paclitaxel]
body weight increase (ascites) ([1]; aggressive disease, two weeks of treatment, sv6D 0.1 nmole/g s.c. alternate days, paclitaxel 18 μg/g i.p. days 45, 47, 49): had not significantly increased | ρ of body weight on day 58 vs. PBS or no treatment ([1]; paclitaxel 18 μg/g i.p. days 45, 47, 49, t test, Fig. 6a): < 0.05 | median survival ([1]; paclitaxel alone, PBS control 122 days, Fig. 6c): approximately 141 days | ρ of body weight on day 121, paclitaxel vs. PBS ([1]; t test, Fig. 6b): < 0.05

I: NQHTPRGGGSKK-NH2 / II: NQHTPRGGGSK / III: NQHTPRGGGS / IV: NQHTPRGGGS (amide I:11-IV:C, I:12-II:C, II:11-III:C) [sv6D]
antibodies that bind the peptides in mouse sera [2]: negative | Kd (human ASGPR-1; [8]): 120 ± 10 nM | Kd (human CLEC10A; [8]): 150 ± 20 nM

[(VQATQS- GGGS)2K]2K-NH2 [svC1]
expansion of specific cell types [3]: did not increase significantly | binding to ASGPR-1 (human ASGPR-1): near the level of blank wells | binding to CLEC10A (human CLEC10A): near the level of blank wells; also recorded: does not bind to CLEC10A

pembroliumab: antibody against the inhibitory receptor PD-1
overall response rate (PD-1): 15%

CC(=O)N[C@H]1C(O)O[C@H](CO)[C@H](O)[C@@H]1O (mixture of isomers) [GalNAc, N-acetylgalactosamine]
preference of ASGPR-1 for GalNAc over Gal (ASGPR-1 [4]; ref [39]): 60 fold

nivolumab: antibody against the inhibitory receptor PD-1
overall response rate (PD-1): 15%

Asialofetuin: multi-glycosylated protein
IC50 (ASGPR-1 [4]; ASGPR-1, ref [43]): 45600 ± 2700 nM | inhibition of binding of svL4 to ASGPR-1 (ASGPR-1 [5]): 53%

[(VSNQH- GGGS)2K]2K-NH2 [svD2]
binding to ASGPR-1 (human ASGPR-1): bound weakly | binding to CLEC10A (human CLEC10A): bound weakly

B1: svL4, tetravalent peptide [(…-GGGS)2K]2K-NH2 (designed binder)
chain 1: VQATQSNQHTPRGGGS
chain 2: Lys-Lys-Lys-NH2
modifications: not fully specified; printed as [(VQATQSNQHTPR-GGGS)_2_K]_2_K-NH_2_; also: tetravalent: four arms joined by C-termini to branched tri-lysine core
Kd [6]: 240 nM | Kd [7]: 210 nM
